Test results taken from PubChem BioAssay AID256 (DTP/NCI, 2004).
Toxic doses and inconclusive results are not listed. Rule for the calls: active = survival T/C of 150% or more; inactive = T/C below 125% in these data.

Tested on: CD2F1 mice, L1210 leukemia ip, survival T/C
Experiment: NCI In Vivo Anticancer Drug Screen. Data for tumor model L1210 Leukemia (intraperitoneal) in CD2F1 (CDF1) mice
Settings: higher = longer survival
Outline: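 Each value reflects a quotient of treated over vehicle control outcomes in mice with a transplanted tumor.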

[1] = endpoint: mean survival time, dose: 25.0 mg/kg/injection, schedule: Q01DX009 (ip), vehicle: saline with Tween-80
[2] = endpoint: mean survival time, dose: 50.0 mg/kg/injection, schedule: Q01DX009 (ip), vehicle: saline with Tween-80
[3] = endpoint: mean survival time, dose: 100.0 mg/kg/injection, schedule: Q01DX001 (ip), vehicle: saline with Tween-80
[4] = endpoint: mean survival time, dose: 100.0 mg/kg/injection, schedule: Q01DX009 (ip), vehicle: saline with Tween-80
[5] = endpoint: mean survival time, dose: 200.0 mg/kg/injection, schedule: Q01DX001 (ip), vehicle: saline with Tween-80
[6] = endpoint: mean survival time, dose: 400.0 mg/kg/injection, schedule: Q01DX001 (ip), vehicle: saline with Tween-80
[7] = endpoint: mean survival time, dose: 100.0 mg/kg/injection, schedule: Q04DX003 (ip), vehicle: saline with Tween-80
[8] = endpoint: mean survival time, dose: 200.0 mg/kg/injection, schedule: Q04DX003 (ip), vehicle: saline with Tween-80
[9] = endpoint: mean survival time, dose: 400.0 mg/kg/injection, schedule: Q04DX003 (ip), vehicle: saline with Tween-80
[10] = endpoint: mean survival time, dose: 200.0 mg/kg/injection, schedule: Q01DX009 (ip), vehicle: saline with Tween-80
[11] = endpoint: mean survival time, dose: 400.0 mg/kg/injection, schedule: Q01DX009 (ip), vehicle: saline with Tween-80

Measured: T/C

O=S(=O)(SC(Cl)(Cl)Cl)c1ccc(Cl)cc1
inactive: endpoint: mean survival time, dose: 12.5 mg/kg/injection, schedule: Q01DX009 (ip), vehicle: saline sonified 103 % of control | endpoint: mean survival time, dose: 25.0 mg/kg/injection, schedule: Q01DX009 (ip), vehicle: saline sonified 102 % of control | [1] 103 % of control | endpoint: mean survival time, dose: 50.0 mg/kg/injection, schedule: Q01DX009 (ip), vehicle: saline sonified 102 % of control | [2] 98 % of control | [3] 91 % of control | [4] 98 % of control

C[N+](C)(C)CCOC(=O)CCC(=O)OCC[N+](C)(C)C
inactive: endpoint: mean survival time, dose: 0.31 mg/kg/injection, schedule: Q01DX009 (ip), vehicle: saline sonified 92 % of control | endpoint: mean survival time, dose: 0.63 mg/kg/injection, schedule: Q01DX009 (ip), vehicle: saline sonified 96 % of control | endpoint: mean survival time, dose: 1.25 mg/kg/injection, schedule: Q01DX009 (ip), vehicle: saline sonified 103 % of control | endpoint: mean survival time, dose: 6.25 mg/kg/injection, schedule: Q04DX003 (ip), vehicle: saline 101 % of control | endpoint: mean survival time, dose: 12.5 mg/kg/injection, schedule: Q04DX003 (ip), vehicle: saline 100 % of control

CCNc1nnc(N=Nc2ccccc2)s1
inactive: endpoint: mean survival time, dose: 25.0 mg/kg/injection, schedule: Q04DX002 (ip), vehicle: saline with Tween-80 91 % of control | endpoint: mean survival time, dose: 50.0 mg/kg/injection, schedule: Q04DX002 (ip), vehicle: saline with Tween-80 95 % of control | endpoint: mean survival time, dose: 100.0 mg/kg/injection, schedule: Q04DX002 (ip), vehicle: saline with Tween-80 95 % of control | endpoint: mean survival time, dose: 200.0 mg/kg/injection, schedule: Q04DX002 (ip), vehicle: saline with Tween-80 88 % of control

CC1/C(=N\Nc2ccc([N+](=O)[O-])cc2[N+](=O)[O-])CCC2C1(C)CCC1C2(C)CCC2(C)C3CC(C)(C)CCC3(C)CCC12C (stereo not drawn)
inactive: endpoint: mean survival time, dose: 100.0 mg/kg/injection, schedule: Q01DX001 (ip), vehicle: saline 97 % of control | endpoint: mean survival time, dose: 200.0 mg/kg/injection, schedule: Q01DX001 (ip), vehicle: saline 97 % of control | endpoint: mean survival time, dose: 400.0 mg/kg/injection, schedule: Q01DX001 (ip), vehicle: saline 97 % of control

COc1ccc(C2C3CN(C4CCCCC4)C(=O)C3(O)NN2C)cc1 (stereo not drawn)
inactive: [3] 91 % of control | [5] 88 % of control | [6] 91 % of control

C=C1C(=O)OCC1(C(=O)OCC)C(=O)OCC
inactive: endpoint: mean survival time, dose: 5.0 mg/kg/injection, schedule: Q01DX001 (ip), vehicle: saline 100 % of control | endpoint: mean survival time, dose: 10.0 mg/kg/injection, schedule: Q01DX001 (ip), vehicle: saline 100 % of control | endpoint: mean survival time, dose: 20.0 mg/kg/injection, schedule: Q01DX001 (ip), vehicle: saline 100 % of control | endpoint: mean survival time, dose: 40.0 mg/kg/injection, schedule: Q01DX001 (ip), vehicle: saline 108 % of control

CCC1(O)C(=O)OCc2c1cc1n(c2=O)Cc2cc3ccc(C(F)(F)F)cc3nc2-1 (stereo not drawn)
inactive: endpoint: median survival time, dose: 10.0 mg/kg/injection, schedule: Q04DX002 (ip), vehicle: saline with Tween-80 103 % of control | endpoint: median survival time, dose: 20.0 mg/kg/injection, schedule: Q04DX002 (ip), vehicle: saline with Tween-80 100 % of control | endpoint: median survival time, dose: 40.0 mg/kg/injection, schedule: Q04DX002 (ip), vehicle: saline with Tween-80 104 % of control | endpoint: median survival time, dose: 80.0 mg/kg/injection, schedule: Q04DX002 (ip), vehicle: saline with Tween-80 104 % of control

CCCCCCCCCCCCCCCCOC(=O)c1cc([N+](=O)[O-])c(Sc2ncnc3nc[nH]c23)c([N+](=O)[O-])c1
inactive: endpoint: mean survival time, dose: 6.25 mg/kg/injection, schedule: Q01DX005 (ip), vehicle: other 105 % of control | endpoint: mean survival time, dose: 12.5 mg/kg/injection, schedule: Q01DX005 (ip), vehicle: other 110 % of control | endpoint: mean survival time, dose: 25.0 mg/kg/injection, schedule: Q01DX005 (ip), vehicle: other 107 % of control | endpoint: mean survival time, dose: 50.0 mg/kg/injection, schedule: Q01DX005 (ip), vehicle: other 117 % of control | endpoint: mean survival time, dose: 100.0 mg/kg/injection, schedule: Q01DX005 (ip), vehicle: other 102 % of control

CCCCCC(CC)OC(=O)Nc1cccc2ccccc12 (stereo not drawn)
inactive: [7] 89 % of control | [8] 101 % of control | [9] 100 % of control

COC(=O)N1c2ccc(C)cc2C=CC1C#N (stereo not drawn)
inactive: [4] 95 % of control | [7] 102 % of control | [10] 100 % of control | [8] 105 % of control | [11] 95 % of control | [9] 90 % of control

CCOC(=O)Nc1cc(NC(c2ccc(Cl)cc2)c2ccc(Cl)cc2)c2[nH]cnc2n1
inactive: endpoint: mean survival time, dose: 75.0 mg/kg/injection, schedule: Q01DX001 (ip), vehicle: other 117 % of control

COC1CC2C=C(C)/C=C/C=C/C(=O)NC(c3ccccc3)C/C=C/CCC(O)CC(=O)C2=C1O (stereo not drawn)
inactive: endpoint: median survival time, dose: 3.12 mg/kg/injection, schedule: Q01DX009 (ip), vehicle: Klucel (hydroxypropylcellulose) (HPC) 108 % of control | endpoint: median survival time, dose: 6.25 mg/kg/injection, schedule: Q01DX009 (ip), vehicle: Klucel (hydroxypropylcellulose) (HPC) 111 % of control | endpoint: median survival time, dose: 12.5 mg/kg/injection, schedule: Q01DX009 (ip), vehicle: Klucel (hydroxypropylcellulose) (HPC) 101 % of control

NS(=O)(=O)c1ccc(Cl)c2ccccc12
inactive: [3] 93 % of control | [5] 98 % of control

OCCN1CCN(CC/C=C2\c3ccccc3Sc3ccc(Cl)cc32)CC1
inactive: endpoint: mean survival time, dose: 3.12 mg/kg/injection, schedule: Q01DX009 (ip), vehicle: saline 102 % of control | endpoint: mean survival time, dose: 6.25 mg/kg/injection, schedule: Q01DX009 (ip), vehicle: saline 116 % of control | endpoint: mean survival time, dose: 12.5 mg/kg/injection, schedule: Q01DX009 (ip), vehicle: saline 122 % of control

CCOC(=O)C(N=O)C(=O)c1ccccc1 (stereo not drawn)
inactive: endpoint: mean survival time, dose: 100.0 mg/kg/injection, schedule: Q01DX009 (ip), vehicle: saline sonified 95 % of control | [7] 96 % of control | endpoint: mean survival time, dose: 200.0 mg/kg/injection, schedule: Q01DX009 (ip), vehicle: saline sonified 101 % of control | [8] 95 % of control | endpoint: mean survival time, dose: 400.0 mg/kg/injection, schedule: Q01DX009 (ip), vehicle: saline sonified 92 % of control | [9] 86 % of control

[Cl][PtH].c1ccc([PH+](c2ccccc2)c2ccccc2)cc1.c1ccc([PH+](c2ccccc2)c2ccccc2)cc1
inactive: [3] 92 % of control | [5] 92 % of control | [6] 95 % of control

CC(C)(C=O)CNC(C)(C)C
inactive: [7] 105 % of control | [8] 96 % of control

N#CS.N=C=S.N=C=S.[Co+3].[NH-]CC[NH-].[NH-]CC[NH-]
inactive: endpoint: mean survival time, dose: 100.0 mg/kg/injection, schedule: Q04DX002 (ip), vehicle: saline 111 % of control | endpoint: mean survival time, dose: 200.0 mg/kg/injection, schedule: Q04DX002 (ip), vehicle: saline 104 % of control

c1ccc2[nH]c(CN3CCCCC3)cc2c1
inactive: endpoint: mean survival time, dose: 12.5 mg/kg/injection, schedule: Q01DX009 (ip), vehicle: saline with Tween-80 106 % of control | [1] 100 % of control | [2] 90 % of control

c1ccc2nc(-c3cc4ccccc4s3)ccc2c1
inactive: [4] 103 % of control | [7] 107 % of control | [10] 100 % of control | [8] 101 % of control | [11] 97 % of control | [9] 96 % of control

CC(c1ccccc1)C(OC(=O)c1ccc([N+](=O)[O-])cc1)c1ccccc1 (stereo not drawn)
inactive: [4] 97 % of control | [7] 98 % of control | [10] 94 % of control | [8] 94 % of control | [11] 91 % of control | [9] 98 % of control

N#C/C(=C\c1cc(Br)cc(Br)c1O)c1ccc([N+](=O)[O-])cc1
inactive: [4] 103 % of control | [10] 96 % of control | [11] 94 % of control

CC(C)OC(=O)C(NC=O)C(C)(C)S (stereo not drawn)
inactive: [4] 100 % of control | [10] 96 % of control | [11] 95 % of control

Cc1cc(CO)c(O)c(CO)c1
inactive: [4] 91 % of control | [10] 91 % of control | [11] 91 % of control

Cn1sc2ccccc2c1=S
inactive: [7] 101 % of control | [8] 96 % of control | [9] 95 % of control
